# Target: T1, HPK1 kinase (aa1-346, Life Technologies) (Homo sapiens, UniProt Q92918)
# T1 construct: HPK1 kinase (aa1-346, Life Technologies); purchased Life Technologies
# T1 sequence (Q92918 1-346): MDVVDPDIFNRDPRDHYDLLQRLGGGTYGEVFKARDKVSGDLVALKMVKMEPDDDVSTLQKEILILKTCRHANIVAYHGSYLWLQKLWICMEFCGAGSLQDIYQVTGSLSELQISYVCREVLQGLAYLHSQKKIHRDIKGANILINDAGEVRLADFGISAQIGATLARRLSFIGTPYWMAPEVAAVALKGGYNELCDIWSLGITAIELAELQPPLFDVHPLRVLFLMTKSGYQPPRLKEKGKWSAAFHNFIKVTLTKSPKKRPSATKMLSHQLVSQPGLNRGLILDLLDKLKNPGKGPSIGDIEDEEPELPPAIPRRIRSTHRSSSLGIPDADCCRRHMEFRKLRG
# Experiment: HPK1 Kinase Activity Assay at 1 mM ATP (TR-FRET)
# Format: biochemical
# Details: HPK1 40 nM, read-out: Enzymatic activity IC50
# Experimental: HPK1 Kinase Activity Assay at 1 mM ATP
# Compounds disclosed herein were tested for inhibition of HPK1 kinase (aa1-346, Life Technologies) activity in assays based on the time-resolved fluorescence-resonance energy transfer (TR-FRET) methodology. The assays were carried out in 384-well low volume black plates in a reaction mixture containing HPK1 kinase (40 nM), 1 mM ATP, 0.5 μM STK1 substrate and 0-10 μM compound in buffer containing 50 mM HEPES, 0.01% BSA, 0.1 mM Orthovanadate, 10 mM MgCl2, 1 mM DTT, pH=7.0, 0.005% Tween-20. The kinase was incubated with the compounds disclosed herein or DMSO for 60 minutes at room temperature and the reaction was initiated by the addition of ATP and STK1 substrate. After reaction at room temperature for 120 minutes, an equal volume of stop/detection solution was added according to the manufacturer's instruction (CisBio). The stop/detection solution contained STK Antibody-Cryptate and XL665-conjugated streptavidin in Detection Buffer. The TR-FRET signals (ratio of fluorescence emission at 665 nm over emission at 620 nm with excitation at 337 nm wavelength) were recorded on a PHERAstar FS plate reader (BMG Labtech). Phosphorylation of STK1 substrate led to the binding of STK Antibody-Cryptate to the biotinylated STK1 substrate, which places fluorescent donor (Eu^3+ cryptate) in close proximity to the accepter (Streptavidin-XL665), thus resulting in a high degree of fluorescence resonance energy transfer. The inhibition of HPK1 in presence of increasing concentrations of compounds was calculated based on the ratio of fluorescence at 665 nm to that at 620 nm. The IC50 for each compound was derived from fitting the data to the four-parameter logistic equation by Graphpad Prism software.
row,Compound,IC50
1,"Cc1cc(-c2c[nH]c3ncc(-c4cc(C)c5c(c4)CN(C)CC5)nc23)ccc1C(=O)N(C)C[C@@H](C)O [Example 4, (R)-4-(2-(2,5-dimethyl-1,2,3,4-tetrahydroisoquinolin-7-yl)-5H-pyrrolo[2,3-b]pyrazin-7-yl)-N-(2-hydroxypropyl)-N, 2-dimethylbenzamide]",92 nM
2,"Cc1cc(-c2cnc3[nH]cc(-c4ccc(C(=O)N(C)C[C@H](C)O)cc4)c3n2)cc2c1CCN(C)C2 [Example 5, (S)-4-(2-(2,5-dimethyl-1,2,3,4-tetrahydroisoquinolin-7-yl)-5H-pyrrolo[2,3-b]pyrazin-7-yl)-N-(2-hydroxypropyl)-N-methylbenzamide]",21 nM
3,"COc1cc(-c2cnc3[nH]cc(-c4cc(F)c(C(=O)N(C)C[C@H]5CCOC5)c(F)c4)c3n2)cc2c1CN(C)CC2 [Example 7B, (R)-2,6-difluoro-4-(2-(8-methoxy-2-methyl-1,2,3,4-tetrahydroisoquinolin-6-yl)-5H-pyrrolo[2,3-b]pyrazin-7-yl)-N-methyl-N-((tetrahydrofuran-3-yl)methyl)benzamide]",31 nM
4,"Cc1cc(-c2cnc3[nH]cc(-c4ccc(C(=O)N(C)C[C@@H](C)O)cc4)c3n2)cc2c1CCN(C)C2 [Example 8, (R)-4-(2-(2,5-dimethyl-1,2,3,4-tetrahydroisoquinolin-7-yl)-5H-pyrrolo[2,3-b]pyrazin-7-yl)-N-(2-hydroxypropyl)-N-methylbenzamide]",36 nM
5,"COc1cc(-c2cnc3[nH]cc(-c4ccc(C(=O)N(C)C[C@H](C)O)c(C)c4)c3n2)cc2c1CCN(C)C2 [Example 12, (S)—N-(2-hydroxypropyl)-4-(2-(5-methoxy-2-methyl-1,2,3,4-tetrahydroisoquinolin-7-yl)-5H-pyrrolo[2,3-b]pyrazin-7-yl)-N, 2-dimethylbenzamide]",52 nM
6,"CN[C@H]1CCN(C(=O)c2ccc(-c3c[nH]c4ncc(-c5cc(C)c6c(c5)CN(C)CC6)nc34)cc2)C1 [Example 14, (S)-(4-(2-(2,5-dimethyl-1,2,3,4-tetrahydroisoquinolin-7-yl)-5H-pyrrolo[2,3-b]pyrazin-7-yl)phenyl) (3-(methylamino)pyrrolidin-1-yl)methanone]",12 nM
7,"CN[C@H]1CCN(C(=O)c2ccc(-c3c[nH]c4ncc(-c5cc6c(c(OC)c5)CCN(C)C6)nc34)cc2)C1 [Example 18, (S)-(4-(2-(5-methoxy-2-methyl-1,2,3,4-tetrahydroisoquinolin-7-yl)-5H-pyrrolo[2,3-b]pyrazin-7-yl)phenyl) (3-(methylamino)pyrrolidin-1-yl)methanone]",7 nM
8,"Cc1cc(-c2cnc3[nH]cc(-c4ccc(C(=O)N5CC6(COC6)C5)cc4)c3n2)cc2c1CCN(C)C2 [Example 19, (4-(2-(2,5-dimethyl-1,2,3,4-tetrahydroisoquinolin-7-yl)-5H-pyrrolo[2,3-b]pyrazin-7-yl)phenyl) (2-oxa-6-azaspiro[3.3]heptan-6-yl)methanone]",13 nM
9,"Cc1cc(-c2c[nH]c3ncc(-c4cc(C)c5c(c4)CN(CCC(=O)N[C@H]4CC[C@H](O)CC4)CC5)nc23)ccc1C(=O)N(C)C [Example 23, 4-(2-(2-(3-((trans-4-hydroxycyclohexyl)amino)-3-oxopropyl)-5-methyl-1,2,3,4-tetrahydroisoquinolin-7-yl)-5H-pyrrolo[2,3-b]pyrazin-7-yl)-N, N, 2-trimethylbenzamide]",122 nM
10,"Cc1cc(-c2c[nH]c3ncc(-c4cc(C)c5c(c4)CN(CCC(=O)N4CCN(C)CC4)CC5)nc23)ccc1C(=O)N(C)C [Example 24, N, N, 2-trimethyl-4-(2-(5-methyl-2-(3-(4-methylpiperazin-1-yl)-3-oxopropyl)-1,2,3,4-tetrahydroisoquinolin-7-yl)-5H-pyrrolo[2,3-b]pyrazin-7-yl)benzamide]",75 nM
11,"COc1ccc(NC(=O)CCN2CCc3c(C)cc(-c4cnc5[nH]cc(-c6ccc(C(=O)N(C)C)c(C)c6)c5n4)cc3C2)cc1 [Example 27, 4-(2-(2-(3-(4-methoxyphenylamino)-3-oxopropyl)-5-methyl-1,2,3,4-tetrahydroisoquinolin-7-yl)-5H-pyrrolo[2,3-b]pyrazin-7-yl)-N, N, 2-trimethylbenzamide]",26 nM
12,"Cc1cc(-c2c[nH]c3ncc(-c4cc(C)c5c(c4)CN(CCC(=O)NC4CCOCC4)CC5)nc23)ccc1C(=O)N(C)C [Example 28, N, N, 2-trimethyl-4-(2-(5-methyl-2-(3-oxo-3-(tetrahydro-2H-pyran-4-ylamino)propyl)-1,2,3,4-tetrahydroisoquinolin-7-yl)-5H-pyrrolo[2,3-b]pyrazin-7-yl)benzamide]",67 nM
13,"Cc1cc(-c2c[nH]c3ncc(-c4cc(C)c5c(c4)CN(CCC(=O)NC[C@@H](C)O)CC5)nc23)ccc1C(=O)N(C)C [Example 29, (R)-4-(2-(2-(3-(2-hydroxypropylamino)-3-oxopropyl)-5-methyl-1,2,3,4-tetrahydroisoquinolin-7-yl)-5H-pyrrolo[2,3-b]pyrazin-7-yl)-N, N, 2-trimethylbenzamide]",46 nM

# More lines, now with the values ahead:
row,IC50,Compound
1,34 nM,"COc1cc(-c2cnc3[nH]cc(-c4cc(F)c(C(=O)N(C)C[C@@H]5CCOC5)c(F)c4)c3n2)cc2c1CN(C)CC2 [Example 7A, (S)-2,6-difluoro-4-(2-(8-methoxy-2-methyl-1,2,3,4-tetrahydroisoquinolin-6-yl)-5H-pyrrolo[2,3-b]pyrazin-7-yl)-N-methyl-N-((tetrahydrofuran-3-yl)methyl)benzamide]"
2,62 nM,"Cc1cc(-c2cnc3[nH]cc(-c4ccc(C(=O)N(C)C[C@@H](C)O)cc4)c3n2)cc2c1CCN(CCN1CCOCC1)C2 [Example 9, (R)—N-(2-hydroxypropyl)-N-methyl-4-(2-(5-methyl-2-(2-morpholinoethyl)-1,2,3,4-tetrahydroisoquinolin-7-yl)-5H-pyrrolo[2,3-b]pyrazin-7-yl)benzamide]"
3,74 nM,"Cc1cc(-c2c[nH]c3ncc(-c4cc(C)c5c(c4)CN(C)CC5)nc23)ccc1C(=O)N(C)C[C@H](C)O [Example 11, (S)-4-(2-(2,5-dimethyl-1,2,3,4-tetrahydroisoquinolin-7-yl)-5H-pyrrolo[2,3-b]pyrazin-7-yl)-N-(2-hydroxypropyl)-N, 2-dimethylbenzamide]"
4,45 nM,"Cc1cc(-c2cnc3[nH]cc(-c4ccc(C(=O)N(C)C[C@H](C)O)cc4)c3n2)cc2c1CCN(CCN1CCOCC1)C2 [Example 13, (S)—N-(2-hydroxypropyl)-N-methyl-4-(2-(5-methyl-2-(2-morpholinoethyl)-1,2,3,4-tetrahydroisoquinolin-7-yl)-5H-pyrrolo[2,3-b]pyrazin-7-yl)benzamide]"
5,24 nM,"Cc1cc(-c2c[nH]c3ncc(-c4cc(C)c5c(c4)CN(C)CC5)nc23)ccc1C(=O)N1CC(O)C1 [Example 17, (4-(2-(2,5-dimethyl-1,2,3,4-tetrahydroisoquinolin-7-yl)-5H-pyrrolo[2,3-b]pyrazin-7-yl)-2-methylphenyl) (3-hydroxyazetidine-1-yl)methanone]"
6,75 nM,"CC(=O)Nc1cc(-c2c[nH]c3ncc(-c4cc(C)c5c(c4)CN(C)CC5)nc23)ccc1C(=O)N(C)C [Example 21, 2-acetamido-4-(2-(2,5-dimethyl-1,2,3,4-tetrahydroisoquinolin-7-yl)-5H-pyrrolo[2,3-b]pyrazin-7-yl)-N, N-dimethylbenzamide]"
7,11 nM,"COc1cc(-c2cnc3[nH]cc(-c4ccc(C(=O)N(C)C)cc4)c3n2)cc2c1CN(C)CC2 [Example 22, 4-(2-(8-methoxy-2-methyl-1,2,3,4-tetrahydroisoquinolin-6-yl)-5H-pyrrolo[2,3-b]pyrazin-7-yl)-N, N-dimethylbenzamide]"
8,49 nM,"CNC(=O)CCN1CCc2c(C)cc(-c3cnc4[nH]cc(-c5ccc(C(=O)N(C)C)c(C)c5)c4n3)cc2C1 [Example 25, N, N, 2-trimethyl-4-(2-(5-methyl-2-(3-(methylamino)-3-oxopropyl)-1,2,3,4-tetrahydroisoquinolin-7-yl)-5H-pyrrolo[2,3-b]pyrazin-7-yl)benzamide]"
9,63 nM,"Cc1cc(-c2c[nH]c3ncc(-c4cc(C)c5c(c4)CN(CCC(=O)N(C)C)CC5)nc23)ccc1C(=O)N(C)C [Example 26, 4-(2-(2-(3-(dimethylamino)-3-oxopropyl)-5-methyl-1,2,3,4-tetrahydroisoquinolin-7-yl)-5H-pyrrolo[2,3-b]pyrazin-7-yl)-N, N, 2-trimethylbenzamide]"

# — patent publication US12454534B2, “Pyrrolo[2,3-b]pyrazines as HPK1 inhibitor and the use thereof” (BEIGENE, LTD., priority 2019, dated 2025)
